Reference: patent publication US11992500B2, “Use of methylation inhibitors for the treatment of autoimmune diseases” (Rush University Medical Center, priority 2018, dated 2024)
Entries after “also recorded” stand apart in the source; their conditions may differ.

What was measured:
A20 cells [1] = test: Gene expression (qRT-PCR) in A20 cells cultured with epigenetic enzyme inhibitors; format: cell-based, mouse; settings: for AhR gene expression / Arnt gene expression: AzaC 2, 5, 10 μM, SAHA 0.1, 0.5, 1.0 μM, GSK126 5, 10, 15 μM, FIG. 6
A20 cells [2] = test: Western blot of subcellular fractions of AzaC treated A20 cells; format: cell-based, mouse
Experimental: Western blot analyses: AzaC treated A20 cells (10 μM AzaC for 72 hours) washed with PBS, nuclear and cytoplasmic extracts were prepared from 8×10^6 cells using Nuclei EZ Prep kit (Sigma-Aldrich) according to the manufacturer's protocol. Protein extracts were separated on a 4-10% SDS-polyacrylamide gel (Bio-Rad Laboratories) and blotted onto Immuno-Blot membrane (Bio-Rad Laboratories). Western blots were serially probed with anti-AhR, anti-Lamin-B1 and glyceraldehyde-3-phosphate dehydrogenase (GAPDH) (Santa Cruz Biotechnologies) antibodies. ECL Western Blotting Substrate (ThermoScientific) was used for detection.

[3] = cancer patients, effective dose; cited from earlier work
[4] = system: proteoglycan-induced arthritis (PGIA); test: Prophylactic AzaC treatment of mice with PGIA; format: in vivo, BALB/c mice; settings: prophylactic AzaC i.p. every other day from 10 days before expected onset
Experimental: (§1) Mice: Retired breeder female BALB/c mice were purchased from the National Cancer Institute (NCI) and were used for the generation of cartilage proteoglycan-induced arthritis (PGIA). Briefly, the mice were immunized with PG purified from knee joint cartilage osteoarthritis patients who had undergone joint replacement surgery. PG was injected intraperitoneally (IP) 3 times (at 3-week intervals, 100 μg PG core protein/injection) with 2 mg of dimethyl-dioctadecyl-ammonium bromide adjuvant into BALB/c mice. Mice with acute arthritis were sacrificed 9 days after the 3rd PG immunization. Animal experiments were approved by the Institutional Animal Care and Use Committee at Rush University Medical Center, Chicago, Ill. […] Additional characteristics of RA are also present in other rodent models, but the above listed phenotypes and genotypes are present together only in PGIA.
First, the prophylactic effect of AzaC on arthritis development in mice with PGIA was investigated. AzaC treatment was started 10 days before the expected PGIA onset (on day 40 of the immunization) and was administered intraperitoneally (i.p.) every other day. The control group received saline solution (FIG. 3(A)). […] Female BALB/c mice were immunized 3 times with PG. Limbs were inspected regularly after the third PG injection for signs of arthritis, and a visual arthritis score was assigned to all paws. […]

[5] = system: B cells of mice with PGIA; test: Molecular, cellular and histological analyses of AzaC-treated PGIA mice; format: in vivo, BALB/c mice
Text: (§2) RNA isolation, cDNA synthesis, and quantitative reverse transcription-polymerase chain reaction (qRT-PCR): Total RNA from cell culture was isolated using QIAmp RNA Blood Kit (Qiagen) or Direct-Zol™ RNA miniprep Kit (Zymo Research). Each RNA sample was digested with 4U of TurboDNase™ (Ambion) and purified with RNA clean and concentrator-5 (Zymo Research) and samples quantified using NanoDrop 1000 spectrophotometer. Primary mouse cells were collected from the spleens, on day 9 after the third PG injection. B cells were purified using antibody-coated magnetic beads (StemCell Technologies). RNA was isolated from purified mouse lymphocytes using a TRI reagent (Sigma-Aldrich) immediately after separation.
Genomic DNA (gDNA) purification, Global DNA methylation assessment and Methylated CpG island ecovery assay (MIRA)-assisted microarray (MIRA-chip) and data analysis: gDNA was isolated from affinity purified B cells using QIAamp DNA Mini Kit (Qiagen). Global DNA methylation analysis was performed using Imprint Methylated DNA Quantification kit (Sigma-Aldrich). Experiments were conducted according to manufacturer instructions MIRA enrichment of methylated gDNA fractions were performed by MethylCollector™ Ultra kit (Active Motif), captured fractions were labeled and hybridized to microarrays harboring all mouse promoters and CpG island outside of the promoter regions (NimbleGene). Data analysis was performed as described before.
In another embodiment, the effect of AzaC treatment on germinal center (GC) formation in animals was investigated. Germinal center formation was examined in control (DDA adjuvant-injected and arthritic non-treated) and arthritic AzaC-treated mice (FIG. 4(C-D)). […] Joint-draining lymph nodes (FIG. 4(C)) and spleens (FIG. 4(D)). DDA-injected (adjuvant control), vehicle-treated mice with PGIA and AzaC-treated mice with PGIA. Green-GL7 (activated B and T cell marker), Red-CD45/B220 (B cells), Blue-CD4 & CD8a (T cells). Arrows point to GCs. GC %-percentage of GC-containing follicles observed in the investigated lymph nodes and spleens (n=36 follicles from LNs, n=106 follicles from spleens). Green sidebars-percentage of GC carrying follicles. Red sidebars are follicles without GC.

[6] = system: B cells of mice with PGIA; test: as above; format: in vivo, BALB/c mice; remark: listed apart in the source
[7] = system: ex vivo-cultured arthritic B cells; test: Ahr expression (RT-qPCR) in ex vivo-cultured arthritic B cells; format: cell-based, mouse; settings: 20 μM AzaC, FIG. 1(J)
Text: Primary mouse cells were collected from the spleens, on day 9 after the third PG injection. B cells were purified using antibody-coated magnetic beads (StemCell Technologies). RNA was isolated from purified mouse lymphocytes using a TRI reagent (Sigma-Aldrich) immediately after separation.

A20 cells [8] = test: Gene expression (qRT-PCR) in A20 cells cultured with epigenetic enzyme inhibitors; format: cell-based, mouse
Experimental: Cell cultures: A20 mouse B cell line were purchased from American Type Culture Collection (ATCC) and were maintained at 37° C. in a 5% CO2-humidified atmosphere on Dulbecco's modified Eagle's medium (DMEM) containing 10% fetal bovine serum (FBS) and […] each of penicillin and streptomycin. Human B cell line GM12878 were purchased from ATCC and cultured in RPMI 1640 media and maintained at 37° C. in a 5% CO2-humidified incubator as described above.
Azacitidine (AzaC) treatment of A20 cells: […] were seeded into 6-well plates containing 3 ml cell culture medium. Before AzaC treatment, cells were incubated for 16-18 hours at 37° C. in 5% CO2. Cells were treated with AzaC to a final concentration of 5, 10 and […], control cells were treated with 0.15% DMSO. Cells were incubated for 48, 72 and 96 hours under standard cell culture conditions. After 48 and 72 hours AzaC was replenished to keep the desired AzaC concentration. Harvested cells were washed with phosphate buffered saline (PBS) and viability and cell numbers were assessed on Vi-cell XR cell counter (Beckmann Counter).
as §2
Human peripheral blood mononuclear cells (PBMCs) were separated on a Ficoll gradient from blood samples obtained from consenting, healthy individuals and from RA patients naive to treatment with disease-modifying antirheumatic drugs (DMARDs). The isolated mononuclear cells were stored in RNAlater (Life Technologies) until RNA preparation. Complementary DNA was reverse transcribed from 1 μg total RNA with iScript™ Reverse Transcription Supermix (Bio-Rad Laboratories). Quantitative RT-PCR (CFX Connect™, Bio-Rad Laboratories) was performed in triplicate using SsoAdvanced™ Universal SYBR Green Supermix (Bio-Rad Laboratories) in 10 μl. Quantitative RT-PCR was performed using CFX machine (Bio-Rad). Primers were designed using PrimerQuest software and were manufactured by Integrated DNA Technologies. The qRT-PCR primer sequences are available upon request from the corresponding author. The specificity of the qRT-PCR product was monitored by a post-PCR melting curve analysis. Samples were tested in duplicate, and the CFX manager software was used to calculate the normalized fold expression changes based on the ΔΔCt method. Measured Ct values were normalized to β-actin internal control values.

[9] = system: proteoglycan-induced arthritis (PGIA); test: Therapeutic AzaC treatment of established PGIA; format: in vivo, BALB/c mice; settings: AzaC i.p. every other day after first symptoms (score ≥2), 2 mg/kg
Experimental: as §1
In the therapeutic AzaC treatment group, arthritic mice were i.p. injected with either AzaC or vehicle on every other day following the first symptoms of arthritis, when the visual arthritis score was at least ≥2 per animal (FIG. 3(B)).

Ezh2 = Ezh2 (Homo sapiens, UniProt Q15910); settings: cited from earlier work
[10] = B cells of AzaC-treated PGIA mice, RT-qPCR
[11] = AzaC 48 hours, plasmid not expressing Ahr-specific shRNA

Chain of Ezh2 (Q15910 whole entry, species assumed): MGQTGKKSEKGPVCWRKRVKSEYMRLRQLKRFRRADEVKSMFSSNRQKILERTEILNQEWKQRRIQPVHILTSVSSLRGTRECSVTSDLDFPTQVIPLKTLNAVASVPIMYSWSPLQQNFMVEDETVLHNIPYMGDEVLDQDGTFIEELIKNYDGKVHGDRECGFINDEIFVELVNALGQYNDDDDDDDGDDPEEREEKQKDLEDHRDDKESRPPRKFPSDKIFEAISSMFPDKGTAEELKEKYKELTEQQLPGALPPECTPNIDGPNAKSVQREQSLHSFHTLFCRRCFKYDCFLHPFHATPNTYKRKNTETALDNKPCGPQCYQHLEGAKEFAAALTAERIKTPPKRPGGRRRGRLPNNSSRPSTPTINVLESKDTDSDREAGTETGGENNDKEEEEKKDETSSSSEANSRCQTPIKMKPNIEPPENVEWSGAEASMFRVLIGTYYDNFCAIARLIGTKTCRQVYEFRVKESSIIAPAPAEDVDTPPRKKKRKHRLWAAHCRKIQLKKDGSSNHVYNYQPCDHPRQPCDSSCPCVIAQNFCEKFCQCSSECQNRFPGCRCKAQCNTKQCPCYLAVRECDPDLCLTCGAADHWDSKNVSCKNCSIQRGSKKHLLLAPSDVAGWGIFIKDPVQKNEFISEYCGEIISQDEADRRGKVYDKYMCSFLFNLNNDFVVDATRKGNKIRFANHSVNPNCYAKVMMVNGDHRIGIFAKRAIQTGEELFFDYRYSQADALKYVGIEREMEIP
Chain of Ezh2 (O75530 whole entry partner, species assumed): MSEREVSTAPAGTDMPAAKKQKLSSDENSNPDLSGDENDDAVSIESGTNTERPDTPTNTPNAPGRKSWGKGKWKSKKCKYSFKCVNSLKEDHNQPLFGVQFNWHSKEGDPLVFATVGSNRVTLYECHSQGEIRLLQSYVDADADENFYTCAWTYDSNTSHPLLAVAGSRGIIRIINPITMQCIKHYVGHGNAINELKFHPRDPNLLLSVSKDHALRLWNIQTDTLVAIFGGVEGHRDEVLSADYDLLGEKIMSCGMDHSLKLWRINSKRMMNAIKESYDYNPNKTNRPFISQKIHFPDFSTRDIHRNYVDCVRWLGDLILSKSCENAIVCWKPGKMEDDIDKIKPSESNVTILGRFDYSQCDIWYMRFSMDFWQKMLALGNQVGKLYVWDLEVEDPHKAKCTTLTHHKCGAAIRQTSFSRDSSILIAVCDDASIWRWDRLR
Chain of Ezh2 (Q15022 whole entry partner, species assumed): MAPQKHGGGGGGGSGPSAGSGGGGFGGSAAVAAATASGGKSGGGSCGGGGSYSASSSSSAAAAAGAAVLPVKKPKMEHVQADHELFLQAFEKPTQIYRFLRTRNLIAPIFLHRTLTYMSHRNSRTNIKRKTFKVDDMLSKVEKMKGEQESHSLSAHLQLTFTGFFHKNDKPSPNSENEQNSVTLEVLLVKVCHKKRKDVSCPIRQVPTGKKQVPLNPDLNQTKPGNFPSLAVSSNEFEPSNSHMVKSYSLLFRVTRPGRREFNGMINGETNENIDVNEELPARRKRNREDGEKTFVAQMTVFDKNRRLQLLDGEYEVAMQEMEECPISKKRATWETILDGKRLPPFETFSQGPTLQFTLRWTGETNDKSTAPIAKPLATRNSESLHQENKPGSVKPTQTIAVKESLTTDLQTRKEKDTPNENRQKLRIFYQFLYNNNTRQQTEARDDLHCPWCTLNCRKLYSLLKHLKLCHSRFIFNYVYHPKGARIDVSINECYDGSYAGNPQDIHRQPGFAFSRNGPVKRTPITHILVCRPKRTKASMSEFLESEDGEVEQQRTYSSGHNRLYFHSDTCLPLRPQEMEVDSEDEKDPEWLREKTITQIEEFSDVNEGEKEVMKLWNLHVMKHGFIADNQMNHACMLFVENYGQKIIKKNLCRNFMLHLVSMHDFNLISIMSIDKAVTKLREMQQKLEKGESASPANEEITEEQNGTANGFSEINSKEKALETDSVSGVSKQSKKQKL
Chain of Ezh2 (Q09028 whole entry partner, species assumed): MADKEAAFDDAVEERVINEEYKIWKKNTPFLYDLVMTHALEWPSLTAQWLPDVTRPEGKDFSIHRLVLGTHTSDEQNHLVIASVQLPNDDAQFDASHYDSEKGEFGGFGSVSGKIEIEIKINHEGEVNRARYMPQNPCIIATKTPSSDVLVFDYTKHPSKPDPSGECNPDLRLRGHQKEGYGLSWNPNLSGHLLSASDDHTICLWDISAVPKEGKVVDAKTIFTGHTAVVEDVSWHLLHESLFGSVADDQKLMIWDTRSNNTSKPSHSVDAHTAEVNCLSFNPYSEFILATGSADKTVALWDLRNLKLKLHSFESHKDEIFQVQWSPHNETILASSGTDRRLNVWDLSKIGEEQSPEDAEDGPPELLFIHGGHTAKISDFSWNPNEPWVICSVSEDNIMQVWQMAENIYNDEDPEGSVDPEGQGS

## O=C(CCCCCCC(=O)Nc1ccccc1)NO [SAHA, suberanilohydroxamic acid]
A20 cells [1]; 72 hours
  Cytotoxicity: without high cytotoxicity
  AhR gene expression: could increase the gene expression
  Arnt gene expression: could increase the gene expression

## CC[C@H](C)n1cc(C)c2c(C(=O)NCc3c(C)cc(C)[nH]c3=O)cc(-c3ccc(N4CCNCC4)nc3)cc21 [GSK126, N-[(1,2-dihydro-4,6-dimethyl-2-oxo-3-pyridinyl)methyl]-3-methyl-1-[(1S)-1-methylpropyl]-6-[6-(1-piperazinyl)-3-pyridinyl]-1H-indole-4-carboxamide]
A20 cells [1]; 72 hours
  AhR gene expression: promoted the expression
  Arnt gene expression: statistically significant upregulation

## Nc1ncn([C@@H]2O[C@H](CO)[C@@H](O)[C@H]2O)c(=O)n1 [AzaC, 4-Amino-1-(β-D-ribofuranosyl)-1,3,5-triazin-2(1H)-one]
A20 cells [2]; 10 μM AzaC for 72 hours, Western blot
  Translocation of AhR into nuclei: translocation of the translated product into A20 nuclei; also recorded: AhR translocated into the nucleus without adding specific agonist
A20 cells [2]; Western blot, FIG. 2(E)
  Aicda protein level in cytoplasmic fraction: downregulation could be also observed at protein level; also recorded: reduces Aicda level
A20 cells [2]; Western blotting
  AhR protein level: elevated AhR protein level was not detected
[3]
  Adverse drug events / side effects: triggers cytotoxicity and induces nausea, vomiting, fevers, diarrhea, rigors and many other side effects; also recorded: induces severe adverse drug events (ADEs)
[4]
  Development of PGIA (signs of disease): No sign of the disease was observed; also recorded: prevents the development of arthritis; also recorded: prevents PGIA development
[5]; [10]
  Ahr expression in vivo: restore Ahr expression in vivo; also recorded: increased Ahr expression; also recorded: sufficient for releasing Ahr expression from DNA methylation-mediated blockage; also recorded: reactivated
  Aicda expression in vivo: markedly inhibited; also recorded: downregulation of Aicda expression
[5]; B cells of AzaC-treated arthritic mice
  DNA methylation level of Ahr promoter (MIRA): erased arthritis-associated DNA hypermethylation; also recorded: reduced
[5]; spleen and draining lymph nodes
  Germinal center (GC) formation: seriously impaired GC development and reduced GC number; also recorded: diminished; also recorded: impaired GC formation
[5]; splenic B cells of AzaC-treated PGIA mice, qRT-PCR
  Post-recombinant IgG1 transcript level (class switch recombination): significantly decreased
[6]; AzaC-treated arthritic versus naive (non-immunized) ankles
  Histology of ankle joints: no detectable histological differences
[6]; bone marrow, flow cytometry
  Immature B cell number: significant decrease
  Plasma cell number: reduced, but statistically not significant alteration
[6]; sera of AzaC-treated PGIA mice
  Autoantibody titer (human PG-specific IgG1, ELISA): diminish autoantibody production; also recorded: significantly reduced
[6]; spleen, flow cytometry
  Splenic marginal zone (MZ) and follicular B cell populations: no significant change
A20 cells [1]; 10 μM AzaC, 24, 48 and 72 hours
  Ahr expression, time course: could be reactivated; also recorded: increased Ahr expression; also recorded: significantly increased; also recorded: releases Ahr from DNA methylation-mediated silencing
A20 cells [1]; 72 hours
  AhR gene expression: significant reactivation
  Arnt gene expression: could not trigger significant upregulation
A20 cells [1]; extended exposure to AzaC (24-72 hours)
  Aicda expression: significantly downregulated; also recorded: reduces Aicda expression; also recorded: downregulated expression
[7]
  Ahr expression: restored
A20 cells [8]; 10 μM AzaC for 72 hours, FIG. 5(C)
  Expression of tentative AhR target genes (cytokine genes): could significantly alter the expression of three tentative AhR target genes
A20 cells [8]; AzaC 48 hours plus Ahr-specific shRNA-expressing construct
  Aicda expression with Ahr-specific shRNA: reversed
A20 cells [8]; [11]
  Ahr expression, control plasmid: significantly increased
  Aicda expression, control plasmid: downregulated
A20 cells [8]; AzaC in various concentrations (5, 10, 15 μM), followed for three days, FIG. 1(L)
  AhR gene expression: could revive AhR expression after two days
A20 cells [8]; AzaC treatment
  Cyp1a1 gene expression: elevated expression of Cyp1a1 gene
A20 cells [8]; AzaC treatment, FIG. 1(M), FIG. 2(A)
  Arnt expression: increased; also recorded: reactivated; also recorded: just prolonged and high concentration AzaC treatment could have released it from the silent state
A20 cells [8]; AzaC treatment, FIG. 2(B)
  RelB expression: increased
[9]
  Swelling and progression of established PGIA: significantly reduce swelling and halt the progression of PGIA; also recorded: very effective; also recorded: no detectable signs of PGIA after the second AzaC injection; also recorded: halted the progression of PGIA; also recorded: clinical symptoms of RA were abolished

## CCCc1cc(C)[nH]c(=O)c1CNC(=O)c1cc(-c2ccnc(N3CCN(C)CC3)c2)cc2c1cnn2C(C)C [GSK343, N-[(1,2-dihydro-6-methyl-2-oxo-4-propyl-3-pyridinyl)methyl]-1-(1-methylethyl)-6-[2-(4-methyl-1-piperazinyl)-4-pyridinyl]-1H-indazole-4-carboxamide]
Ezh2
  Ki (affinity to Ezh2): low nM range
